The values that follow come from US8349880B2, “Bicyclic compounds for the reduction of beta-amyloid production” (Bristol-Myers Squibb Company, priority 2009, dated 2013).

For the first assay, the system named is Aβ1-42 production. Nature of the assay: Cellular assay for inhibition of Aβ1-42 production (H4 APP751 SWE clone 8.20). To be noted: 19 h, H4 APP751 SWE clone 8.20 cells, 19 h incubation; read-out: Activity Rating (Aβ42 cellular IC50, given as a number). Format: cell-based. In short, it runs like this: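 H4 cells stably expressing APP751 with the Swedish mutation (1.5×10^4 cells/well) incubated with compound for 19 h at 37° C in DMEM with 0.0125% BSA. Secreted Aβ42 measured overnight at 4° C by HTRF-type pairing of 565 (Aβ42 neoepitope) and 26D6 (N-terminal) antibodies. IC50 from curve fit.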
Usually IC50 stands for the point on the concentration scale where inhibition reaches its midpoint. Regarding `Cc1ncn(-c2ccc(Nc3nc4n(n3)CCC3(CC4c4ccc(F)cc4)OCCO3)cc2F)n1` (centres unmarked) [Example 158, N-(3-fluoro-4-(3-methyl-1H-1,2,4-triazol-1-yl)phenyl)-9-(4-fluorophenyl)-5,6,8,9-tetrahydrospiro[[1,2,4]triazolo[1,5-a]azepine-7,2′-[1,3]dioxolan]-2-amine 2,2,2-trifluoroacetate], the IC50 amounted to 16 nM. `COc1cc(Nc2nc3n(n2)CCCCC3c2ccc(OC(F)(F)F)cc2)cc(F)c1-n1cnc(C)n1` (centres unmarked) [Example 167, N-(3-fluoro-5-methoxy-4-(3-methyl-1H-1,2,4-triazol-1-yl)phenyl)-9-(4-(trifluoromethoxy)phenyl)-6,7,8,9-tetrahydro-5H-[1,2,4]triazolo[1,5-a]azepin-2-amine]: the IC50 worked out at 44 nM. The same measure, in the same setting: in the case of `COc1cc(Nc2nc3n(n2)CCCCC3c2ccc(-n3cncn3)cc2)ccc1-n1cnc(Cl)c1` (centres unmarked) [Example 172, 9-(4-(1H-1,2,4-triazol-1-yl)phenyl)-N-(4-(4-chloro-1H-imidazol-1-yl)-3-methoxyphenyl)-6,7,8,9-tetrahydro-5H-[1,2,4]triazolo[1,5-a]azepin-2-amine 2,2,2-trifluoroacetate] it was 64 nM.

The same assay, now with this note: 19 h, H4 APP751 SWE clone 8.20 cells, 19 h incubation; read-out: Activity Rating (based on Aβ42 cellular IC50 values).
Consider `COc1cc(Nc2nc3n(n2)CCC(N2CCC2)CC3c2ccc(F)cc2)ccc1-n1cnc(Cl)c1` (centres unmarked) [Example 142, 7-(azetidin-1-yl)-N-(4-(4-chloro-1H-imidazol-1-yl)-3-methoxyphenyl)-9-(4-fluorophenyl)-6,7,8,9-tetrahydro-5H-[1,2,4]triazolo[1,5-a]azepin-2-amine], for which the IC50 is 10 to 100 nM. On to `COc1cc(Nc2nc3n(n2)CCC(N2CCCC2)CC3c2ccc(F)cc2)ccc1-n1cnc(Cl)c1` (centres unmarked) [Example 143, N-(4-(4-chloro-1H-imidazol-1-yl)-3-methoxyphenyl)-9-(4-fluorophenyl)-7-(pyrrolidin-1-yl)-6,7,8,9-tetrahydro-5H-[1,2,4]triazolo[1,5-a]azepin-2-amine], for which the half-inhibitory concentration (IC50) was 10 to 100 nM.

`COc1cc(Nc2nc3n(n2)CCC2(CC3c3ccc(F)cc3)OCCO2)ccc1-n1cnc(Cl)c1` (centres unmarked) [Example 144, N-(4-(4-chloro-1H-imidazol-1-yl)-3-methoxyphenyl)-9-(4-fluorophenyl)-5,6,8,9-tetrahydrospiro[[1,2,4]triazolo[1,5-a]azepine-7,2′-[1,3]dioxolan]-2-amine 2,2,2-trifluoroacetate]: the 50% inhibitory concentration (IC50) is under 10 nM. As to `COc1cc(Nc2nc3n(n2)CCC(OC)(OC)CC3c2ccc(F)cc2)ccc1-n1cnc(Cl)c1` (centres unmarked) [Example 145, N-(4-(4-chloro-1H-imidazol-1-yl)-3-methoxyphenyl)-9-(4-fluorophenyl)-7,7-dimethoxy-6,7,8,9-tetrahydro-5H-[1,2,4]triazolo[1,5-a]azepin-2-amine], the IC50 was under 10 nM. The same measure, in the same setting: in the case of `CCC1(O)CCn2nc(Nc3ccc(-n4cnc(Cl)c4)c(OC)c3)nc2C(c2ccc(F)cc2)C1` (centres unmarked) [Example 146, 2-(4-(4-chloro-1H-imidazol-1-yl)-3-methoxyphenylamino)-7-ethyl-9-(4-fluorophenyl)-6,7,8,9-tetrahydro-5H-[1,2,4]triazolo[1,5-a]azepin-7-ol] it was under 10 nM. Still for that read-out and setting: in the case of `COc1cc(Nc2nc3n(n2)CCCCC3c2ccccc2)ccc1-n1cnc(Cl)c1` (centres unmarked) [Example 159, 2,2,2-trifluoroacetate] it was under 10 nM; in that of `Cc1ncnn1-c1ccc(Nc2nc3n(n2)CCCCC3c2ccc(OC(F)(F)F)c(F)c2)cc1F` (centres unmarked) [Example 160, N-(3-fluoro-4-(5-methyl-1H-1,2,4-triazol-1-yl)phenyl)-9-(3-fluoro-4-(trifluoromethoxy)phenyl)-6,7,8,9-tetrahydro-5H-[1,2,4]triazolo[1,5-a]azepin-2-amine], under 10 nM; in that of `COc1cc(Nc2nc3n(n2)CCCCC3c2ccc(OCC(F)F)cc2)ccc1-n1cnc(Cl)c1` (centres unmarked) [Example 161, N-(4-(4-chloro-1H-imidazol-1-yl)-3-methoxyphenyl)-9-(4-(2,2-difluoroethoxy)phenyl)-6,7,8,9-tetrahydro-5H-[1,2,4]triazolo[1,5-a]azepin-2-amine], 10 to 100 nM. For `Cc1ncn(-c2ccc(Nc3nc4n(n3)CCCCC4c3ccc(OC(F)(F)F)c(F)c3)cc2F)n1` (centres unmarked) [Example 164, N-(3-fluoro-4-(3-methyl-1H-1,2,4-triazol-1-yl)phenyl)-9-(3-fluoro-4-(trifluoromethoxy)phenyl)-6,7,8,9-tetrahydro-5H-[1,2,4]triazolo[1,5-a]azepin-2-amine], the half-inhibitory concentration (IC50) was under 10 nM. Same read-out and setting: in the case of `COc1cc(Nc2nc3n(n2)CCCCC3c2ccc(Br)cc2)ccc1-n1cnc(Cl)c1` (centres unmarked) [Example 170, 9-(4-bromophenyl)-N-(4-(4-chloro-1H-imidazol-1-yl)-3-methoxyphenyl)-6,7,8,9-tetrahydro-5H-[1,2,4]triazolo[1,5-a]azepin-2-amine] it was under 10 nM; in that of `COc1cc(Nc2nc3n(n2)CCCCC3c2ccc(-n3cccn3)cc2)ccc1-n1cnc(Cl)c1` (centres unmarked) [Example 171, 9-(4-(1H-pyrazol-1-yl)phenyl)-N-(4-(4-chloro-1H-imidazol-1-yl)-3-methoxyphenyl)-6,7,8,9-tetrahydro-5H-[1,2,4]triazolo[1,5-a]azepin-2-amine 2,2,2-trifluoroacetate], 10 to 100 nM. For `COc1cc(Nc2nc3n(n2)CCCCC3c2ccc(-n3ccnc3)cc2)ccc1-n1cnc(Cl)c1` (centres unmarked) [Example 173, 9-(4-(1H-imidazol-1-yl)phenyl)-N-(4-(4-chloro-1H-imidazol-1-yl)-3-methoxyphenyl)-6,7,8,9-tetrahydro-5H-[1,2,4]triazolo[1,5-a]azepin-2-amine 2,2,2-trifluoroacetate], the IC50 fell in the range of 100 to 1000 nM. Turning to `COc1cc(Nc2nc3n(n2)CCCCC3c2ccc(-n3cc(C)cn3)cc2)ccc1-n1cnc(Cl)c1` (centres unmarked) [Example 174, N-(4-(4-chloro-1H-imidazol-1-yl)-3-methoxyphenyl)-9-(4-(4-methyl-1H-pyrazol-1-yl)phenyl)-6,7,8,9-tetrahydro-5H-[1,2,4]triazolo[1,5-a]azepin-2-amine 2,2,2-trifluoroacetate], the IC50 was under 10 nM. Consider `COc1cc(Nc2nc3n(n2)CCCCC3c2ccc(OC(F)(F)F)cc2)c(F)cc1-n1cnc(C)n1` (centres unmarked) [Example 175, N-(2-fluoro-5-methoxy-4-(3-methyl-1H-1,2,4-triazol-1-yl)phenyl)-9-(4-(trifluoromethoxy)phenyl)-6,7,8,9-tetrahydro-5H-[1,2,4]triazolo[1,5-a]azepin-2-amine], for which the IC50 fell in the range of 10 to 100 nM.

Staying with this assay, now noted: H4 APP751 SWE clone 8.20 cells, 19 h incubation; read-out: Activity Rating (based on Aβ42 cellular IC50 values).
“(R)—N-(3-fluoro-4-(5-methyl-1H-1,2,4-triazol-1-yl)phenyl)-9-(4-fluorophenyl)-6,7,8,9-tetrahydro-5H-[1,2,4]triazolo azepin-2-amine [Example 95]”: the half-inhibitory concentration (IC50) lay in the range of 10 to 100 nM.

“(S)—N-(2-fluoro-5-methoxy-4-(3-methyl-1H-1,2,4-triazol-1-yl)phenyl)-9-(4-(2,2,2-trifluoroethoxy)phenyl)-6,7,8,9-tetrahydro-5H-[1,2,4]triazolo azepin-2-amine [Example 117]”: the IC50 was 10 to 100 nM. On to “S)—N-(4-(4-chloro-1H-imidazol-1-yl)-3-methoxyphenyl)-9-(3,4-difluorophenyl)-6,7,8,9-tetrahydro-5H-[1,2,4]triazolo[1,5-a]azepin-2-amine [Example 23]”, for which the IC50 was under 10 nM.
